Measured values published in ChEMBL document CHEMBL1201862, “PubChem BioAssay data set” (2004).
Active and inactive are the calls of the source.

What was measured:
[1] = biological target: T1, Rac GTPase-activating protein 1 (Homo sapiens, UniProt Q9H0H5); experiment: blockers of MgcRacGAP-driven Rac1 GTP hydrolysis – biochemical, ADP Hunter fluorescence, primary and confirmatory, confirmation (AID 624330); format: functional
T1 sequence (Q9H0H5 whole entry): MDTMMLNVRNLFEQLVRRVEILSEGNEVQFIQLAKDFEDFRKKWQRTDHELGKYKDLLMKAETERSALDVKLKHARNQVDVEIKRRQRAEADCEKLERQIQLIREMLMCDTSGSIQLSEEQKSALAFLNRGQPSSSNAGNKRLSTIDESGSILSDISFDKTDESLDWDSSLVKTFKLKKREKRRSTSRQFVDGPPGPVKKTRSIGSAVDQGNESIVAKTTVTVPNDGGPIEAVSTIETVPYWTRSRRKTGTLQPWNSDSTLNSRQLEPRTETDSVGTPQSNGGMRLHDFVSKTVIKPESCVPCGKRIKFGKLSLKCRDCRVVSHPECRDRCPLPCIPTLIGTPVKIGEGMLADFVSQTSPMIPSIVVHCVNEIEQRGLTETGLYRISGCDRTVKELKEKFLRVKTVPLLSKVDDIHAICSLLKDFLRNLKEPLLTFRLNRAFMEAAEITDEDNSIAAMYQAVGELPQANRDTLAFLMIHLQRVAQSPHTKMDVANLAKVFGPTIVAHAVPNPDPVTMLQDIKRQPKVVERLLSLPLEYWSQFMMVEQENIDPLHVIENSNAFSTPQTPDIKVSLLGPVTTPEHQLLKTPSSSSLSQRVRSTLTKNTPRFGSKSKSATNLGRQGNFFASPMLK

[2] = biological target: fMet-Leu-Phe receptor (Homo sapiens, UniProt P21462); experiment: formyl peptide receptor binders – dose response (AID 519); format: functional
[3] = biological target: Major prion protein (Homo sapiens, UniProt P04156); format: functional, cell-based
[4] = cells
[5] = biological target: Endoplasmic reticulum aminopeptidase 1 (Homo sapiens, UniProt Q9NZ08); experiment: inhibition of human ERAP1 enzyme activity – biochemical, cherry-pick, set 2, plate reader, dose response (AID 743314)
[6] = biological target: T2, Ubiquitin-conjugating enzyme E2 N (Homo sapiens, UniProt P61088); format: functional;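 further: Dose-response confirmation in a TR-FRET assay detecting UBC13-driven polyubiquitin chain formation, inhibition measured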
T2 sequence (P61088 whole entry): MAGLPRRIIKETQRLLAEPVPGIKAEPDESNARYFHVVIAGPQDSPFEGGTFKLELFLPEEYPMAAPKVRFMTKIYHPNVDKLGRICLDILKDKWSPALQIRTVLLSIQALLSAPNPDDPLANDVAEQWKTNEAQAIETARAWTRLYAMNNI

[7] = biological target: T3, Insulin-degrading enzyme (Homo sapiens, UniProt P14735); experiment: recombinant IDE activation, cell-free – biochemical, fluorescence polarization, counter-screen for IDE activator project, dose response (AID 588681)
T3 sequence (P14735 whole entry): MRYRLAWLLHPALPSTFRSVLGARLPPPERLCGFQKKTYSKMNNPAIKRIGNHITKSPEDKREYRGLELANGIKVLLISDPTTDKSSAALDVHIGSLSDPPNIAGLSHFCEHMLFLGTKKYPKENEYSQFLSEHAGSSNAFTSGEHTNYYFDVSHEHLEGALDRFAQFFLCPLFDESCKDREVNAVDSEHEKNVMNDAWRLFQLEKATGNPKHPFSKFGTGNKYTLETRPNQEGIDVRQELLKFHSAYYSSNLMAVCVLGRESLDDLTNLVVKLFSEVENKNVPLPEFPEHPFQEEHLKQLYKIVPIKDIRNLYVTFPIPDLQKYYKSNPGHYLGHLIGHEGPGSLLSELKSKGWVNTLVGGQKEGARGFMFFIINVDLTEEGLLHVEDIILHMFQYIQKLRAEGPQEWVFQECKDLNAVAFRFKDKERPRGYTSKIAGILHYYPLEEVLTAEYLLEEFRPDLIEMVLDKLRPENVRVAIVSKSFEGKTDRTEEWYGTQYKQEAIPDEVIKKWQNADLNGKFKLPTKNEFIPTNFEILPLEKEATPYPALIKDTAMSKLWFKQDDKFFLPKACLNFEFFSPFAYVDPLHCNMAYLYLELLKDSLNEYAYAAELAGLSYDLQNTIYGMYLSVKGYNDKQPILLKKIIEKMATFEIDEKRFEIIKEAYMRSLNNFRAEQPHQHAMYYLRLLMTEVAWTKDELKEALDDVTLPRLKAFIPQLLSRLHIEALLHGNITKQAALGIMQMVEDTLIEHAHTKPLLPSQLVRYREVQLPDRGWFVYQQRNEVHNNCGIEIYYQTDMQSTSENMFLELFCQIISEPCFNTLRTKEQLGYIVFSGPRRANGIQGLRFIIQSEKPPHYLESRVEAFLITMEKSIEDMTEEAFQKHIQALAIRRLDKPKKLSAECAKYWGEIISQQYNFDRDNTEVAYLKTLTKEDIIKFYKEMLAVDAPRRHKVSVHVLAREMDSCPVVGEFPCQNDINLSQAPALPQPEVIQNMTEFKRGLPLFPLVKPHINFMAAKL

[8] = biological target: T4, Apoptotic protease-activating factor 1 (Homo sapiens, UniProt O14727); format: functional
T4 sequence (O14727 whole entry): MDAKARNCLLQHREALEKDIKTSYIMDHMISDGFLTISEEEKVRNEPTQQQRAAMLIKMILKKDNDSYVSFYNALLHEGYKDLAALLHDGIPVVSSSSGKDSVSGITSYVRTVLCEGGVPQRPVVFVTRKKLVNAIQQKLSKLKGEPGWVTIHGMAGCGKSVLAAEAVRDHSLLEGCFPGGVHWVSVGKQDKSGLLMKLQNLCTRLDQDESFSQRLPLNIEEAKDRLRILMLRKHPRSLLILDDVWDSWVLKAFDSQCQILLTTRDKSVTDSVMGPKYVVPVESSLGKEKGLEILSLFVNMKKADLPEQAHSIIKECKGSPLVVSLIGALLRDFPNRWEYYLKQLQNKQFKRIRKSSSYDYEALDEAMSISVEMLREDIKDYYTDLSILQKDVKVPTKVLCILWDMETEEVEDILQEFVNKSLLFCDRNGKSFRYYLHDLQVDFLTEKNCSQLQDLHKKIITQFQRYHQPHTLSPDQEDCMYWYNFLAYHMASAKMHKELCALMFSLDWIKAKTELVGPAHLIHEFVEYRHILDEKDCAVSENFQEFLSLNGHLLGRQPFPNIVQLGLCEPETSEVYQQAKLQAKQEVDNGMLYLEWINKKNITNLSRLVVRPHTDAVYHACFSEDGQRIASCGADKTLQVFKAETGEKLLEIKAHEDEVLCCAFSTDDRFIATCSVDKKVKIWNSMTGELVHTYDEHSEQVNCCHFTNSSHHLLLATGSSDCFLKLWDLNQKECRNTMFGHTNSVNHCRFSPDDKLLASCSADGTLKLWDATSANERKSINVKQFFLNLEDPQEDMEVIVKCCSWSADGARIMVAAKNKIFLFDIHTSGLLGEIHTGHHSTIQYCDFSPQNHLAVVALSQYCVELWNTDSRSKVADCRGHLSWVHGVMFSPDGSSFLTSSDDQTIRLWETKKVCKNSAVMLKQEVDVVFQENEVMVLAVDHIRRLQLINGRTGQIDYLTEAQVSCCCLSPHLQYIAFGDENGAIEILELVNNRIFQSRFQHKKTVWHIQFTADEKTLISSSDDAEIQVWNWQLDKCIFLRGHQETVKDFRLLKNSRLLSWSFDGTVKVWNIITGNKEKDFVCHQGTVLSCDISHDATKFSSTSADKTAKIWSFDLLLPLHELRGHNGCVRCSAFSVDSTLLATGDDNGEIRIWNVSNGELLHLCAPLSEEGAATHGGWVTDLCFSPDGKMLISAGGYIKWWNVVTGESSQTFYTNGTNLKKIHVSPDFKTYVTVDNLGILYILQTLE

[9] = biological target: T3, Insulin-degrading enzyme; experiment: cellular IDE activation of Abeta substrate cleavage – fluorescence polarization, HEK cells, dose response (AID 588439); format: functional, cell-based
[10] = tested on: HEK293; experiment: membrane integrity loss in HEK cells – cell-based, fluorescence, cytotoxicity control for IDE activator project, dose response (AID 588440); format: functional; conditions: Homo sapiens;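 further: cytotoxicity by LDH release measuring loss of membrane integrity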
[11] = tested on: HEK293; experiment: optical interference in Abeta FP readout, dose response, artefact control for IDE activator project, biochemical, fluorescence polarization (AID 588442); format: functional, cell-based; conditions: Homo sapiens
[12] = activation of miR-122 Renilla sensor silencing – cell-based, Huh7 psiCHECK-miR122, Renilla luciferase, cherry-picked, dose response (AID 651956); format: functional;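 further: huh7 hepatoma cells stably carrying a psiCHECK-2 miR-122 sensor plasmid; renilla luciferase signal reporting endogenous miR-122 activity after 48 h compound exposure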
[13] = blockers of HIV-1 envelope-mediated cell-cell fusion – cherry-pick, dose response (AID 652057); format: functional, cell-based
[14] = viability loss in CEM21 cells – cell-based, CellTiter-Glo luminescence, cherry-picked, cytotoxicity control for viral fusion inhibitor project, dose response (AID 652042); format: functional;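 further: potency for signal decrease meaning cytotoxicity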
[15] = blockers of HIV-1 ZM109 envelope-driven cell-cell fusion – HeLa effector, CEM target cells, luciferase, cherry-pick, dose response (AID 652058); format: functional, cell-based;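 further: luciferase signal from HIV-1 Env mediated cell-cell fusion of effector and target cells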
[16] = off-target signal loss in HeLa-CEM21 co-culture – HeLa F-luc CTL cells, cherry-picked, counter-screen for HIV-1 Env fusion inhibitor project, dose response (AID 652040); format: functional, cell-based;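 further: potency for signal decrease marking cytotoxic or nonspecific inhibition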
[17] = HIV-1 AD8 envelope cell-cell fusion blockers – cherry-pick, dose response (AID 652062); format: functional, cell-based;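 further: luciferase signal from cell-cell fusion driven by HIV-1 clade B AD8 Env; potency is for inhibitors of fusion seen as a drop in luminescence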
[18] = general mammalian cell viability loss – inhibitor set, cherry-pick, set 2, cytotoxicity control for miR-122 modulator project, dose response (AID 720697); format: functional, cell-based
[19] = general mammalian cell viability loss – activator set, cherry-pick, cytotoxicity control for miR-122 modulator project, dose response (AID 720690); format: functional, cell-based;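 further: HEK293T human cells scored for general mammalian cytotoxicity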
[20] = decrease of insulin promoter-GFP reporter – imaging, high-content screening, mouse beta cells (AID 1628); format: functional; conditions: MIN6
[21] = MIN6 cell viability loss – mouse insulinoma, cytotoxicity control, dose response (AID 2122); format: functional;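 further: confirmatory high-throughput counterscreen run to flag cytotoxic compounds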
[22] = HEK-293T viability loss after treatment – luminescence, T-cell screen hits, cytotoxicity control for TCR NF-kB inhibitor project, dose response (AID 489026); format: functional, cell-based;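 further: cells exposed to compound about 14 hours before the viability readout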
[23] = tested on: INS1; experiment: INS-1E survival protection against cytokine death – cell-based, luminescence, retest, dose response (AID 449756); format: functional; conditions: Rattus norvegicus;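 further: cell death triggered by IL-1 beta plus TNF-alpha plus IFN-gamma mixture; protective hits raise ATP signal compared with cytokine alone wells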
[24] = reduction of Shn3 3'UTR-driven luciferase in osteoblasts – cell-based, Clone20 osteoblasts, firefly luciferase, cherry-picked, dose response (AID 624132); format: functional;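 further: firefly luciferase luminescence from reporter carrying the Shn3 3'UTR in osteoblasts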
[25] = loss of viability in HepG2 cells – cell-based, CellTiter-Glo, cherry-picked, cytotoxicity control for Shn3 inhibitor project, dose response (AID 624134); format: functional
[26] = non-specific 3'UTR reporter inhibition in Clone20-Shn3RL – cell-based, Renilla luciferase, cherry-picked, counter-screen for Shn3 inhibitor project, dose response (AID 624133); format: functional
[27] = biological target: COUP transcription factor 2 (Homo sapiens, UniProt P24468); experiment: Luminescence-based cell-based high throughput dose response assay to identify inhibitors of COUP-TFII (NR2F2).; format: functional;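 further: HEK293 cells transiently cotransfected with COUP-TFII expression vector and reporter; luciferase reporter luminescence driven by COUP-TFII from the pX2-168 reporter plasmid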
[28] = biological target: Potassium channel subfamily K member 9 (Homo sapiens, UniProt Q9NPC2); experiment: KCNK9 flux blockade, concentration-response – cell-based, FluxOR thallium flux, selectivity assay for TASK1 inhibitor project, SAR follow-up (AID 652211); format: functional;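 further: potency is for inhibitors of the channel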
[29] = biological target: Potassium channel subfamily K member 3 (Homo sapiens, UniProt O14649); experiment: inhibition of human KCNK3 channel flux – CHO cells, FluxOR thallium flux, SAR follow-up (AID 652212); format: functional
[30] = viability loss in HEK293T cells – cell-based, CellTiter-Glo luminescence, dry powder, set 6, cytotoxicity control, dose response (AID 651949); format: functional; conditions: HEK293
[31] = Mycobacterium tuberculosis BioA enzyme inhibitor Measured in Biochemical System Using Plate Reader - 2163-02_Inhibitor_Dose_DryPowder_Activity.

Compound: CC(C)(C)CC(=O)Nc1ccc(Nc2ccccc2)cc1
- IC50 [1]: 88.6 µM (active)
- Ki [2]: > 66.7 µM (inactive)

Compound: CCc1nc(SCC(=O)N2c3ccccc3Sc3ccccc32)c2ccccc2n1
- IC50 [3]: 1.84 µM (active)
- IC50 [4]: > 138 µM (inactive)

Compound: CCc1cc(=O)oc2c(CN3CCN(C)CC3)c(O)ccc12
- AC50 [5]: 7.3 µM (active)

Compound: FC(F)(F)c1cc(CCN2CCNC[C@@H]2CC2CCCCC2)cc(C(F)(F)F)c1
- IC50 [6]: > 20 µM (inactive)
- EC50 [7]: > 54.7 µM (inactive)
- IC50 [8]: 62.5 µM (active)
- EC50 [9]: 17.6 µM (inactive)
- IC50 [10]: 9.68 µM (active)
- EC50 [11]: > 54.7 µM (inactive)
- AC50 [12]: 23.8 µM (active)
- AC50 [13]: 7.14 µM (active)
- AC50 [14]: 7.74 µM (active)
- AC50 [15]: 11.5 µM (active)
- AC50 [16]: 11.2 µM (active)
- AC50 [17]: 17.6 µM (active)
- AC50 [18]: 8.59 µM (active)
- AC50 [19]: 7.47 µM (active)

Compound: CCC(O)C1CCN(C(=O)c2cc(COc3ccc4ncccc4c3)on2)CC1 (stereo unspecified)
- IC50 [20]: 0.571 µM (active)
- IC50 [21]: 0.294 µM (active)
- IC50 [22]: > 80 µM (inactive)
- AC50 [23]: 3.38 µM (active)
- AC50 [24]: 0.505 µM (active)
- AC50 [25]: 1.75 µM (active)
- AC50 [26]: 10.9 µM (active)
- IC50 [27]: 4.46 µM (active)

Compound: COc1c(F)cccc1C(=O)Nc1cccc(NC(=O)c2cccc(C)c2)c1
- IC50 [28]: 0.37 µM (active)
- IC50 [29]: 0.013 µM (active)

Compound: c1ccc(CNCCSc2nnc(-c3ccccc3)o2)cc1
- AC50 [30]: > 52 µM (inactive)

Compound: Cc1cccc(/C=C(\CCC(=O)O)c2nc3ccccc3s2)c1
- AC50 [31]: 14.5 µM (active)
